The record followed here is US8067424B2, “Selective inhibitors for cyclin-dependent kinases” (Emory University, priority 2007, dated 2011).

Molecules are shown by their SMILES. Read-outs that look alike come from different tables or passages of the source.

What all share (assay type): biochemical
The target of one experiment is T1, NEK2a (Homo sapiens, UniProt P51955).
T1 sequence (P51955 1-445): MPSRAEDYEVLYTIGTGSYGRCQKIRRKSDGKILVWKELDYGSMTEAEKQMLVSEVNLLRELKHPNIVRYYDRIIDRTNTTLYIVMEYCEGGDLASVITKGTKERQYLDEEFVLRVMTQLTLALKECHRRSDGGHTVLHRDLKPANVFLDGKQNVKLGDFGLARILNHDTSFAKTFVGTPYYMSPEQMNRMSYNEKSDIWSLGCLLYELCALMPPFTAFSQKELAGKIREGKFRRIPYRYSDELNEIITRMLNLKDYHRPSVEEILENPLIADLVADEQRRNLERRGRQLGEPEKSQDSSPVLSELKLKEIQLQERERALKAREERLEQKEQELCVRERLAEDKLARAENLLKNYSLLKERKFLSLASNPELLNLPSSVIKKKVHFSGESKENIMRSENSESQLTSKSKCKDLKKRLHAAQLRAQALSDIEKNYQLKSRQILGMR
Briefly: Kinase screen: NEK2a assay. Here is the method: (§1) Generally, the same procedure was used for all assays. Since the total assay volume was 25.5 microliters, 0.5 microliters of inhibitors at 51× assay concentration were added to the plates before any other addition.
(§2) The basic procedure was to add 0.5 microliters inhibitor/control in DMSO to plate. Fifteen microliters of enzyme/substrate/buffer mix were added and incubated for 5 min. Ten microliters MgATP at the relevant concentration were added and incubated for 30 min. The assay was stopped by adding 5 microliters of 3% orthophosphoric acid. The assay was transferred to a p81 filter plate and read in a scintillation counter of 30 sec/well. Note that this assay procedure was not followed for MKK1, which instead involved a two-step assay, and PKC alpha, which required the addition of lipid vesicles.
NEK2a assay: 5-20 mU of NEK2a (diluted in 50 mM Tris (pH 7.5), 0.1 mM EGTA, 1 mg/ml BSA, 0.1%, b-Mercaptoethanol) was assayed against NEK2a peptide ([…]) (SEQ ID NO: 19) in a final volume of 25.5 μl containing 50 mM Tris (pH 7.5), 0.1 mM EGTA, 0.01% Brij, 0.1%, b-Mercaptoethanol, 300 μM NEK2a peptide, 10 mM magnesium acetate and 0.05 mM [33P-g-ATP] (500-1000 cpm/pmole) and incubated for 30 mins at room temperature. Assays were stopped by addition of 5 µl of 0.5M (3%) orthophosphoric acid. Assays were harvested onto P81 Unifilter plates using a wash buffer of 50 mM orthophosphoric acid.

For another experiment, the target named is MST4 (Homo sapiens, UniProt Q9P289). Briefly: Kinase screen: MST4 assay. The settings on record: 10 micromolar compound; for remaining activity at 10 µM: read-out: mean activity remaining (as a percentage of the original activity), MST4. As for the experimental part:
as §1, §2
MST4 assay: 5-20 mU of MST4 (diluted in 50 mM Tris (pH 7.5), 0.1 mM EGTA) was assayed against MBP in a final volume of 25.5 μl containing 50 mM Tris (pH 7.5), 0.1 mM EGTA, 0.33 mg/ml MBP, 10 mM magnesium acetate and 0.02 mM [33P-g-ATP] (500-1000 cpm/pmole) and incubated for 30 mins at room temperature. Assays were stopped by addition of 5 μl of 0.5M (3%) orthophosphoric acid. Assays were harvested onto P81 Unifilter plates using a wash buffer of 50 mM orthophosphoric acid.

The next experiment has as its target T2, DYRK2 (Homo sapiens, UniProt Q92630).
T2 sequence (Q92630 1-601): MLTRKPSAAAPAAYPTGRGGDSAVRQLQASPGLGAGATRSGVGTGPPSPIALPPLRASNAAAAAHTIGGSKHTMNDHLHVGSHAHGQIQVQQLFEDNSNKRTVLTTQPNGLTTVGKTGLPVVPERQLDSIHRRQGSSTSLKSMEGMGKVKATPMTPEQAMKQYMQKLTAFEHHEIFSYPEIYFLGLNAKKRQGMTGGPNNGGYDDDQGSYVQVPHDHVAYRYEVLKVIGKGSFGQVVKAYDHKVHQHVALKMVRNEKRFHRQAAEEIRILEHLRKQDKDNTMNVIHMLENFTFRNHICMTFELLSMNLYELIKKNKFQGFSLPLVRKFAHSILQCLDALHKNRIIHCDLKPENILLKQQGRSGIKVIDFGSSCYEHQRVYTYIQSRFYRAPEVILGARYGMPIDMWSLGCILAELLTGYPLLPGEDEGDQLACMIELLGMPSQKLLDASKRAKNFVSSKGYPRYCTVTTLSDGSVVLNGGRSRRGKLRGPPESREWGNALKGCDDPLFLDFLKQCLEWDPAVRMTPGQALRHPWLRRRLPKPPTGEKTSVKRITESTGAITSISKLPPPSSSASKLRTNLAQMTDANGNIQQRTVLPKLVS
Briefly: Kinase screen: DYRK2 assay. As for the experimental part: as §1, §2
DYRK2 assay: DYRK2 (5-20 mU of diluted in 50 mM Tris pH7.5, 0.1 mM EGTA) was assayed against Woodtide ([…]) (SEQ ID NO: 29) in a final volume of 25.5 μ1 containing 50 mM Tris pH 7.5, 0.1 mM EGTA, 350 μM substrate peptide, 10 mM Magnesium acetate and 0.05 mM [33P-g-ATP] (50-1000 cpm/pmole) and incubated for 30 min at room temperature. Assays were stopped by addition of 5 μl of 0.5 M (3%) orthophosphoric acid and then harvested onto P81 Unifilter plates with a wash buffer of 50 mM orthophosphoric acid.

In the next experiment the target is EPH-A2 (Homo sapiens, UniProt P29317). Briefly: Kinase screen: EPH-A2 assay. The settings on record: 10 micromolar compound; for remaining activity at 10 µM: read-out: mean activity remaining (as a percentage of the original activity), EPH A2. Here is the method: as §1, §2
EPH-A2 assay: EPH-A2 (5-20 mU diluted in 50 mM Tris pH 7.5, 0.1 mM EGTA, 1 mg/ml BSA) was assayed against a substrate peptide (Poly Glut Tyr) in a final volume of 25.5 μl containing 50 mM Tris pH 7.5, 0.1 mg/ml substrate peptide, 10 mM magnesium acetate and 0.05 mM [33P-g-ATP] (50-1000 cpm/pmole) and incubated for 30 min at room temperature. Assays were stopped by addition of 5 μl of 0.5 M (3%) orthophosphoric acid and then harvested onto P81 Unifilter plates with a wash buffer of 50 mM orthophosphoric acid.

The mark [1] stands for this setting: 10 micromolar compound, read-out: mean activity remaining (as a percentage of the original activity), NEK 2a.
The mark [2] stands for this setting: 10 micromolar compound, read-out: mean activity remaining (as a percentage of the original activity), DYRK 2.

Sequence of EPH-A2 (P29317 24-976, species assumed): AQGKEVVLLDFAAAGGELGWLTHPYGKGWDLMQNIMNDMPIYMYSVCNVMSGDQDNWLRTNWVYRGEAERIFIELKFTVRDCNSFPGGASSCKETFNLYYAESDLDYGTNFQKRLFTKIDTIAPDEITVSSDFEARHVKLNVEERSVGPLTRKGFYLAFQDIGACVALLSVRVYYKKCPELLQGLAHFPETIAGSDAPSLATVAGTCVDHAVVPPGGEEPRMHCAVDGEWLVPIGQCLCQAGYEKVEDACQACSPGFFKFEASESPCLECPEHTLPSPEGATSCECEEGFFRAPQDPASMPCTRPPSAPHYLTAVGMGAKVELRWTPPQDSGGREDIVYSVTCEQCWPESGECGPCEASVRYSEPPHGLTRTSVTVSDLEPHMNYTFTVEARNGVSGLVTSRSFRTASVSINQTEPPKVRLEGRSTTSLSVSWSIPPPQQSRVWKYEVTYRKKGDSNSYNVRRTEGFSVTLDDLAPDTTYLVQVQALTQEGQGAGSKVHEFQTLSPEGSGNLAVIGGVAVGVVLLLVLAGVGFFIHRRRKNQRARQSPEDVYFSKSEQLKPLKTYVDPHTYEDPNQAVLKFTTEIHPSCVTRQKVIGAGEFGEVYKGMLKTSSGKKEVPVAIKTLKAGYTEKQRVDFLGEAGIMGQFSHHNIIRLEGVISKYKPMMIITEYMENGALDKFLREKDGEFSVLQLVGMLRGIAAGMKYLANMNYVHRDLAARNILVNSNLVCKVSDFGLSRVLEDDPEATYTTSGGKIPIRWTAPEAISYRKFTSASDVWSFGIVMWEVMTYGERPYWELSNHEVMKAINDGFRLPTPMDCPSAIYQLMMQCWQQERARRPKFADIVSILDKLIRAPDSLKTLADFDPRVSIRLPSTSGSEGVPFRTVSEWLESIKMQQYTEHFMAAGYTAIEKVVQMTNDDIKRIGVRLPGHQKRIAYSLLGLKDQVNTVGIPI
Sequence of MST4 (Q9P289 whole entry, species assumed): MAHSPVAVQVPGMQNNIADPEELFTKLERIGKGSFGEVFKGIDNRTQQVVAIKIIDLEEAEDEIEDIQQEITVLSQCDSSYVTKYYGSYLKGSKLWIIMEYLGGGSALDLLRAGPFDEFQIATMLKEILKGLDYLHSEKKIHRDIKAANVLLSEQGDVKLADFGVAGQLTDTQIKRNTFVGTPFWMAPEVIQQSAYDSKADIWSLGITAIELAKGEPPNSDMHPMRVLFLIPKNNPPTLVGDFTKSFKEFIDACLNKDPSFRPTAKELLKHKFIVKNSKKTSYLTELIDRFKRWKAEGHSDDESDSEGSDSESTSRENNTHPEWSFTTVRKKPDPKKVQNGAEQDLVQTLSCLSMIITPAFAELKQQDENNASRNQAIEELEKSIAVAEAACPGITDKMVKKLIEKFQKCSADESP

For `CC(C)c1cnn2c(NCc3ccccc3F)cc(NCCCCCN)nc12` [ICEC-0232], at NEK2a (10 micromolar compound), the “mean activity remaining (as a percentage of the original activity), NEK 2a” value was 83%. Moreover, at MST4, the “mean activity remaining (as a percentage of the original activity), MST4” value was found to be 85%. In addition, the “mean activity remaining (as a percentage of the original activity), DYRK 2” value on DYRK2 (10 micromolar compound) was 68%. Also, the “mean activity remaining (as a percentage of the original activity), EPH A2” value at EPH-A2 stood at 92%.
By remaining activity is commonly meant the signal under treatment as a percentage of the control signal. On to `CC[C@H](CO)Nc1cc(NCc2ccccc2)n2ncc(C(C)C)c2n1` [ICEC0067], for which the remaining activity at 10 µM was determined as 75% at NEK2a (setting [1]), 103% at MST4, 90% on DYRK2 (setting [2]) and 101% at EPH-A2.
As for `CC(C)c1cnn2c(NCc3ccccc3)cc(NCCCCCCCN)nc12` [BS-181], the remaining activity at 10 µM on NEK2a (NEK2a, 10 μM, read-out: Mean Remaining Enzyme Activity (%)) was 92%; at DYRK2 (DYRK2, 10 μM, read-out: Mean Remaining Enzyme Activity (%)), 94%.
For `C=C[C@H](CO)Nc1cc(NCc2ccccc2)n2ncc(C(C)C)c2n1` [ICEC0065], the remaining activity at 10 µM on NEK2a (setting [1]) came to 96%; at MST4, 91%; on DYRK2 (setting [2]), 90%; on EPH-A2, 109%.
Take `CC(C)c1cnn2c(NCc3ccccc3)cc(N[C@@H](CO)[C@H](O)CO)nc12` [ICEC0318, (3S)-3-(7-(Benzylamino)-3-isopropylpyrazolo[1,5-a]pyrimidin-5-ylamino)butane-1,2,4-triol]: the remaining activity at 10 µM on NEK2a (setting [1]) was found to be 102%; at MST4, 92%; on DYRK2 (setting [2]) it was 75%; on EPH-A2, 116%.
